Test results: ChEMBL document CHEMBL2407082, “Tetrahydroquinoline-derived macrocyclic toolbox: the discovery of antiangiogenesis agents in zebrafish assay” (ACS Med Chem Lett, 2013)
The source made the active and inactive calls. The calls are words filed in the database; no cut-off is given here.

Tests used:
Danio rerio [1] = species: Danio rerio; experiment: Inhibition of AB zebrafish early embryo development assessed as delay in epiboly at 2.5 uM after 10 hrs post fertilization by inverted microscopic analysis; assay type: functional, organism-based
Danio rerio [2] = species: Danio rerio; experiment: Antiangiogenic activity in transgenic zebrafish embryo expressing EGFP at 2.5 uM after 36 hrs post fertilization by inverted microscopic analysis; assay type: functional, organism-based

Structure (SMILES)	inhibition (Danio rerio [1])	inhibition (Danio rerio [2])
CC[C@H](C)[C@@H]1NC(=O)C[C@H]2[C@@H]3OC(C)(C)O[C@H]3c3cc4c(cc3N2C/C=C\COC1=O)OCO4	Active	–
CC(C)C[C@@H]1NC(=O)C[C@H]2[C@@H]3OC(C)(C)O[C@H]3c3cc4c(cc3N2C/C=C\COC1=O)OCO4	–	Active
C=CCOC(=O)N1c2cc3c(cc2[C@@H]2OC(C)(C)O[C@H]2[C@@H]1CCN(Cc1ccc(F)cc1)C(=O)[C@H](CC(C)C)NC(=O)OCC1c2ccccc2-c2ccccc21)OCO3	Active	–
C=CCOC(=O)N1c2cc3c(cc2[C@@H]2OC(C)(C)O[C@H]2[C@@H]1CCO)OCO3	Active	Active
C=CCOC[C@H](Cc1ccccc1)NC(=O)C[C@@H]1Nc2cc3c(cc2[C@@H]2OC(C)(C)O[C@@H]12)OCO3	–	Active
